Measurements reported in patent publication US10316017B2, “COT modulators and methods of use thereof” (Gilead Sciences, Inc., priority 2015, dated 2019).

molecular target: T1, human Cot catalytic domain (30-397 amino acids) (Homo sapiens, UniProt P41279); test: High Throughput Cot Biochemical Assay (KinEASE TR-FRET); conditions: Cot KinEASE TR-FRET, 400 μM ATP; read-out: IC50 HTRF
T1 construct: Purified recombinant human Cot catalytic domain (30-397 amino acids) was purchased from Cama Biosciences; purchased Cama Biosciences (so in the source)
Method: Example 61: High Throughput Cot Biochemical Assay
In this assay, Cot-catalyzes the phosphorylation of a XL665-labeled peptide substrate. Europium conjugated phospho-tyrosine specific antibody binds the resulting phosphorylated peptide. […] Purified recombinant human Cot catalytic domain (30-397 amino acids) was purchased from Cama Biosciences. […] The standard 5 μL reaction mixture contained 400 μM ATP, 1 μM STK3 peptide, 5 nM of Cot in reaction buffer (10 mM MOPS, pH 7.0, 0.02% NaN3, 0.5 mg/mL BSA, 10 mM MgOAc, 1 mM DTT, 0.025% NP-40, 1.5% glycerol) and 0.1% DMSO.

T1 sequence (P41279 30-397): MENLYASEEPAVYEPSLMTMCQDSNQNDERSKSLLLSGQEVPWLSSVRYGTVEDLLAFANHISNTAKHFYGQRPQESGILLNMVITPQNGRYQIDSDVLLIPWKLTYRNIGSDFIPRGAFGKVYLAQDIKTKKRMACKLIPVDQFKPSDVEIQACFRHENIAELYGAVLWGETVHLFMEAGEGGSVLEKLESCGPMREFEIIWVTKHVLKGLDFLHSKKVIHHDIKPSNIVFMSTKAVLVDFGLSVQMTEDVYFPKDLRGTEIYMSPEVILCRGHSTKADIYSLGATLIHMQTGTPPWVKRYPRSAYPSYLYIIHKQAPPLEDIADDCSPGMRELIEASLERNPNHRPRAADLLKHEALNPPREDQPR

IC50 | SMILES
7 nM | COc1cccc(C(Nc2cc(Cl)c3ncc(C#N)c(Nc4ccc(F)c(Cl)c4)c3c2)c2cn(C3CCNCC3)nn2)c1 (stereo not shown) [Example 903, 8-chloro-4-((3-chloro-4-fluorophenyl)amino)-6-(((3-methoxyphenyl)(1-(piperidin-4-yl)-1H-1,2,3-triazol-4-yl)methyl)amino)quinoline-3-carbonitrile]
860 nM | CCN1CCC(n2cc([C@H](Nc3cc(Cl)c4ncc(C#N)c(Nc5ccc(F)c(Cl)c5)c4c3)c3ccc(Cl)cc3)nn2)CC1 [Example 856, (R)-8-chloro-4-((3-chloro-4-fluorophenyl)amino)-6-(((4-chlorophenyl)(1-(1-ethylpiperidin-4-yl)-1H-1,2,3-triazol-4-yl)methyl)amino)quinoline-3-carbonitrile]
30 nM | CC(C)(C)N1CCC(n2cc([C@@H](Nc3cc(Cl)c4ncc(C#N)c(Nc5ccc(F)c(F)c5)c4c3)c3ccc(Cl)cc3)nn2)CC1 [Example 732, (S)-6-(((1-(1-(tert-butyl)piperidin-4-yl)-1H-1,2,3-triazol-4-yl)(4-chlorophenyl)methyl)amino)-8-chloro-4-((3,4-difluorophenyl)amino)quinoline-3-carbonitrile]
3210 nM | CN(c1ccc(F)c(Cl)c1)c1c(C#N)cnc2c(Cl)cc(N[C@@H](c3ccc(Cl)cc3)c3cn(C4CCN(C(C)(C)C)CC4)nn3)cc12 [Example 749, (S)-6-(((1-(1-(tert-butyl)piperidin-4-yl)-1H-1,2,3-triazol-4-yl)(4-chlorophenyl)methyl)amino)-8-chloro-4-((3-chloro-4-fluorophenyl)(methyl)amino) quinoline-3-carbonitrile]
363 nM | CC(C)(C)OC(=O)N1CCC(n2cc([C@@H](Nc3cc(Cl)c4ncc(C#N)c(Nc5ccc(F)c(Cl)c5)c4c3)c3ccc(F)cc3)nn2)CC1 [Example 830, tert-butyl (S)-4-(4-(((8-chloro-4-((3-chloro-4-fluorophenyl)amino)-3-cyanoquinolin-6-yl)amino)(4-fluorophenyl)methyl)-1H-1,2,3-triazol-1-yl)piperidine-1-carboxylate]
1990 nM | COC(=O)c1cccc([C@@H](c2cn(C3CCN(C(C)(C)C)CC3)nn2)N(C)c2cc(Cl)c3ncc(C#N)c(Nc4ccc(F)c(Cl)c4)c3c2)c1 [Compound 39]
60 nM | CC(C)(C)N1CCC(n2cc([C@@H](Nc3cc(Cl)c4ncc(C#N)c(Nc5ccc(C#N)c(Cl)c5)c4c3)c3ccc(Cl)cc3)nn2)CC1 [Example 770, (S)-6-(((1-(1-(tert-butyl)piperidin-4-yl)-1H-1,2,3-triazol-4-yl)(4-chlorophenyl)methyl)amino)-8-chloro-4-((3-chloro-4-cyanophenyl)amino)quinoline-3-carbonitrile]
23 nM | CC(C)(C)N1CCC(n2cc([C@@H](Nc3cc(Cl)c4ncc(C#N)c(Nc5ccc(F)c(Br)c5)c4c3)c3ccc(Cl)cc3)nn2)CC1 [Example 763, (S)-4-((3-bromo-4-fluorophenyl)amino)-6-(((1-(1-(tert-butyl)piperidin-4-yl)-1H-1,2,3-triazol-4-yl)(4-chlorophenyl)methyl)amino)-8-chloroquinoline-3-carbonitrile]
48 nM | CC(=O)N1CCC(n2cc(C(Nc3cc(Cl)c4ncc(C#N)c(Nc5ccc(F)c(Cl)c5)c4c3)c3ccc(F)cc3)nn2)CC1 (stereo not shown) [Example 844, 6-(((1-(1-acetylpiperidin-4-yl)-1H-1,2,3-triazol-4-yl)(4-fluorophenyl)methyl)amino)-8-chloro-4-((3-chloro-4-fluorophenyl)amino)quinoline-3-carbonitrile]

The remaining lines, values behind:

SMILES | IC50
CCN1CCC(n2cc([C@@H](Nc3cc(Cl)c4ncc(C#N)c(Nc5ccc(F)c(Cl)c5)c4c3)c3ccc4ccccc4c3)nn2)CC1 [Example 820, (S)-8-chloro-4-((3-chloro-4-fluorophenyl)amino)-6-(((1-(1-ethylpiperidin-4-yl)-1H-1,2,3-triazol-4-yl)(naphthalen-2-yl)methyl)amino)quinoline-3-carbonitrile] | 23 nM
CCN1CCC(n2cc(C(Nc3cc(Cl)c4ncc(C#N)c(Nc5ccc(F)c(Cl)c5)c4c3)c3ccc(Cl)c(Cl)c3)nn2)CC1 (stereo not shown) [Example 911, 8-chloro-4-((3-chloro-4-fluorophenyl)amino)-6-(((3,4-dichlorophenyl)(1-(1-ethylpiperidin-4-yl)-1H-1,2,3-triazol-4-yl)methyl)amino)quinoline-3-carbonitrile] | 36 nM
Cn1cc(C(Nc2cc(Cl)c3ncc(C#N)c(Nc4ccc(F)c(Cl)c4)c3c2)c2ccc(F)c(F)c2)nn1 (stereo not shown) [Example 891, 8-chloro-4-((3-chloro-4-fluorophenyl)amino)-6-(((3,4-difluorophenyl)(1-methyl-1H-1,2,3-triazol-4-yl)methyl)amino)quinoline-3-carbonitrile] | 30 nM
N#Cc1cnc2c(Cl)cc(NC(c3cccc(F)c3)c3cn(C4CCN(C(=O)OCc5ccccc5)CC4)nn3)cc2c1Nc1ccc(F)c(Cl)c1 (stereo not shown) [Example 905, benzyl 4-(4-(((8-chloro-4-((3-chloro-4-fluorophenyl)amino)-3-cyanoquinolin-6-yl)amino)(3-fluorophenyl)methyl)-1H-1,2,3-triazol-1-yl)piperidine-1-carboxylate] | > 1000 nM
CCN1CCC(n2cc(C(Nc3cc(Cl)c4ncc(C#N)c(Nc5ccc(F)c(Cl)c5)c4c3)c3ccc(OC(F)(F)F)cc3)nn2)CC1 (stereo not shown) [Example 898, 8-chloro-4-((3-chloro-4-fluorophenyl)amino)-6-(((1-(1-ethylpiperidin-4-yl)-1H-1,2,3-triazol-4-yl)(4-(trifluoromethoxy)phenyl)methyl)amino)quinoline-3-carbonitrile] | 40 nM
CCN1CCC(n2cc(C(Nc3cc(Cl)c4ncc(C#N)c(Nc5ccc(F)c(Cl)c5)c4c3)c3ccc(F)cc3)nn2)CC1(C)C (stereo not shown) [Example 838, 8-chloro-4-((3-chloro-4-fluorophenyl)amino)-6-(((1-(1-ethyl-2,2-dimethylpiperidin-4-yl)-1H-1,2,3-triazol-4-yl)(4-fluorophenyl)methyl)amino) quinoline-3-carbonitrile] | 32 nM
N#Cc1cnc2c(Cl)cc(NC(c3cc(F)c(F)c(F)c3)c3cn(C4CCNCC4)nn3)cc2c1Nc1ccc(F)c(Cl)c1 (stereo not shown) [Example 875, 8-chloro-4-((3-chloro-4-fluorophenyl)amino)-6-(((1-(piperidin-4-yl)-1H-1,2,3-triazol-4-yl)(3,4,5-trifluorophenyl)methyl)amino) quinoline-3-carbonitrile] | 66 nM
N#Cc1cnc2c(Cl)cc(NC(c3ccc(F)cc3)c3ncco3)cc2c1Nc1ccc(F)c(Cl)c1 (stereo not shown) [Example 783, 8-chloro-4-((3-chloro-4-fluorophenyl)amino)-6-(((4-fluorophenyl)(oxazol-2-yl)methyl)amino)quinoline-3-carbonitrile] | 291 nM
N#Cc1cnc2c(Cl)cc(N[C@@H](c3ccc(F)cc3)c3cn(C4COC4)nn3)cc2c1Nc1ccc(F)c(Cl)c1 [Example 810, (S)-8-chloro-4-((3-chloro-4-fluorophenyl)amino)-6-(((4-fluorophenyl)(1-(oxetan-3-yl)-1H-1,2,3-triazol-4-yl)methyl)amino)quinoline-3-carbonitrile] | 12 nM
CCN1CCC(n2cc(C(Nc3cc(Cl)c4ncc(C#N)c(Nc5ccc(F)c(Cl)c5)c4c3)c3ccc(F)c(F)c3)nn2)CC1 (stereo not shown) [Example 901, 8-chloro-4-((3-chloro-4-fluorophenyl)amino)-6-(((3,4-difluorophenyl)(1-(1-ethylpiperidin-4-yl)-1H-1,2,3-triazol-4-yl)methyl)amino)quinoline-3-carbonitrile] | 11 nM
